Experiment [1] addresses GDP-bound NRAS wild-type protein (Homo sapiens, UniProt P01111). The experiment is described as follows: Binding to NRAS by surface plasmon resonance (SPR), Single Cycle Kinetics. Conditions: ratio of KD for GDP-bound NRAS wild-type protein to KD for KRAS, SPR. On the technique in general: SPR reads the build-up and loss of mass on a sensor chip optically.
Experiment [2] has as its target GDP-bound HRAS wild-type protein (Homo sapiens, UniProt P01112). The experiment is described as follows: Binding to HRAS by surface plasmon resonance (SPR), Single Cycle Kinetics. Conditions: ratio of KD for GDP-bound HRAS wild-type protein to KD for KRAS, SPR.
In experiment [3] the test system is human lung cancer strain NCI-H441. Description: cells. Particulars: NCI-H441, 96 h, read-out: NCI-H441 IC50 (nM), NCI-H441 cell proliferation, 4 days, CellTiter-Glo. (In general: Cellular ATP, detected with luciferase, serves as a proxy for viable cell number.);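 further: cell proliferation inhibition after four days measured by CellTiter-Glo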

Chain of GDP-bound HRAS wild-type protein (P01112 whole entry): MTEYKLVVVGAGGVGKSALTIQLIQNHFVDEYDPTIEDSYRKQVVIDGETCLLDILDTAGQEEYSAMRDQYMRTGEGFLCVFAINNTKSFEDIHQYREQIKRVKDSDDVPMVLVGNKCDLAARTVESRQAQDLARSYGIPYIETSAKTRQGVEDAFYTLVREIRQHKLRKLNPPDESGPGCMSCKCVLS
Chain of GDP-bound NRAS wild-type protein (P01111 whole entry): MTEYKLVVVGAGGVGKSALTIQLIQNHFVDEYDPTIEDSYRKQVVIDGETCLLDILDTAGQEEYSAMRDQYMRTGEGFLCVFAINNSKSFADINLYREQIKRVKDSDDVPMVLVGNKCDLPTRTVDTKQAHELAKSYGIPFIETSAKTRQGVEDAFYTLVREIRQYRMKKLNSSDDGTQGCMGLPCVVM

Consider `CCCN(C)C(=O)[C@@H]1CC(=O)N(C)[C@@H](CC(F)F)C(=O)N[C@@H]([C@@H](C)CC)C(=O)N(C)CC(=O)N(C)[C@H]2C/C=C\CCN(C2=O)[C@@H](Cc2ccc(C(F)(F)F)cc2)C(=O)N(C)CC(=O)N[C@@H](CCc2ccc(C(F)(F)F)c(OC)c2)C(=O)N2C[C@@H](C)C[C@H]2C(=O)NC2(CCC2)C(=O)N(C)[C@@H](C2CCCC2)C(=O)N1C` [PP2024], for which the “NRAS/KRAS (KD ratio)” value in experiment [1] is “A (a compound having 10 or more and less than 20 is denoted as A)”. For the same molecule, in experiment [2], the “HRAS/KRAS (KD ratio)” value is “B (a compound having 3 or more and less than 10 is denoted as B)”. Further, the IC50 in experiment [3] stood at 10.1 nM.

Regarding `CC[C@H](C)[C@@H]1NC(=O)[C@H](CC2CC2)N(C)C(=O)C[C@@H](C(=O)N(C)C)N(C)C(=O)[C@H](C2CCCC2)N(C)C(=O)C2(CCC2)N(C)C(=O)[C@@H]2CCCN2C(=O)[C@H](CCc2cc(F)c(C(F)(F)F)c(F)c2)NC(=O)CN(C)C(=O)[C@H](Cc2ccc(C)cc2)N2CC/C=C\C[C@@H](C2=O)N(C)C(=O)CN(C)C1=O` [PP1796], the “NRAS/KRAS (KD ratio)” value in experiment [1] is “A (a compound having 10 or more and less than 20 is denoted as A)”. Further, in experiment [2], the “HRAS/KRAS (KD ratio)” value is “B (a compound having 3 or more and less than 10 is denoted as B)”. For the same molecule, in experiment [3], the IC50 was 5.3 nM.

Turning to `CC[C@H](C)[C@@H]1NC(=O)[C@H](CC2CCC2)N(C)C(=O)C[C@@H](C(=O)N(C)C)N(C)C(=O)[C@H](C2CCCC2)N(C)C(=O)C2(CCC2)N(C)C(=O)[C@@H]2C[C@@H](C)CN2C(=O)[C@H](CCc2cc(F)c(C(F)(F)F)c(F)c2)NC(=O)CN(C)C(=O)[C@H](Cc2ccc(C)cc2)N2CC/C=C\C[C@@H](C2=O)N(C)C(=O)CN(C)C1=O` [PP1803], the “NRAS/KRAS (KD ratio)” value in experiment [1] is “A (a compound having 10 or more and less than 20 is denoted as A)”. In addition, in experiment [2], the “HRAS/KRAS (KD ratio)” value was “B (a compound having 3 or more and less than 10 is denoted as B)”. Besides, the IC50 in experiment [3] was 7.6 nM.

Consider `CCO[C@@H]1C[C@H]2C(=O)NC3(CCC3)C(=O)N(C)[C@@H](C3CCCC3)C(=O)N(C)[C@H](C(=O)N(C)CC)CC(=O)N(C)[C@@H](CC3CCC3)C(=O)N[C@@H]([C@@H](C)CC)C(=O)N(C)CC(=O)N(C)[C@H]3C/C=C\CCN(C3=O)[C@@H](Cc3ccc(C(F)(F)F)cc3)C(=O)N(C)CC(=O)N[C@@H](CCc3cc(F)c(C(F)(F)F)c(F)c3)C(=O)N2C1` [PP1667], for which the “NRAS/KRAS (KD ratio)” value in experiment [1] was “A (a compound having 10 or more and less than 20 is denoted as A)”. In experiment [2], the “HRAS/KRAS (KD ratio)” value is “A (a compound having 10 or more and less than 20 is denoted as A)”. The IC50 in experiment [3] was determined as 2 nM.

As for `CCO[C@@H]1C[C@H]2C(=O)NC3(CCC3)C(=O)N(C)[C@@H](C3CCCC3)C(=O)N(C)[C@H](C(=O)N(C)CC)CC(=O)N(C)[C@@H](C3CCC3)C(=O)N[C@@H]([C@@H](C)CC)C(=O)N(C)CC(=O)N(C)[C@H]3C/C=C\CCN(C3=O)[C@@H](Cc3ccc(C(F)(F)F)cc3)C(=O)N(C)CC(=O)N[C@@H](CCc3ccc(C(F)(F)F)c(OC)c3)C(=O)N2C1` [PP2022], in experiment [1], the “NRAS/KRAS (KD ratio)” value is “A (a compound having 10 or more and less than 20 is denoted as A)”. In experiment [2], the “HRAS/KRAS (KD ratio)” value is “A (a compound having 10 or more and less than 20 is denoted as A)”. The IC50 in experiment [3] came out at 2.7 nM.

`CCCOC[C@H]1C(=O)N[C@@H]([C@@H](C)CC)C(=O)N(C)CC(=O)N(C)[C@H]2C/C=C\CCN(C2=O)[C@@H](Cc2ccc(C(F)(F)F)cc2)C(=O)N(C)CC(=O)N[C@@H](CCc2cc(F)c(C(F)(F)F)c(F)c2)C(=O)N2C[C@@H](C)C[C@H]2C(=O)NC2(CCC2)C(=O)N(C)[C@@H](C2CCCC2)C(=O)N(C)[C@H](C(=O)N(C)CCC)CC(=O)N1C` [PP2008]: the “NRAS/KRAS (KD ratio)” value in experiment [1] is “A (a compound having 10 or more and less than 20 is denoted as A)”. Besides, the “HRAS/KRAS (KD ratio)” value in experiment [2] was “A (a compound having 10 or more and less than 20 is denoted as A)”. Further, in experiment [3], the IC50 came to 15.2 nM.

`CCC[C@H]1C(=O)N[C@@H]([C@@H](C)CC)C(=O)N(C)CC(=O)N(C)[C@H]2C/C=C\CCN(C2=O)[C@@H](Cc2ccc(C)cc2)C(=O)N(C)CC(=O)N[C@@H](CCc2ccc(C(F)(F)F)c(OC)c2)C(=O)N2C[C@H](C)C[C@H]2C(=O)NC2(CCC2)C(=O)N(C)[C@@H](C2CCCC2)C(=O)N(C)[C@H](C(=O)N(C)C)CC(=O)N1C` [PP1859]: the “NRAS/KRAS (KD ratio)” value in experiment [1] was “A (a compound having 10 or more and less than 20 is denoted as A)”. For the same molecule, the “HRAS/KRAS (KD ratio)” value in experiment [2] is “A (a compound having 10 or more and less than 20 is denoted as A)”. For the same molecule, the IC50 in experiment [3] is 28.8 nM.

Consider `CCC[C@H]1C(=O)N[C@@H]([C@@H](C)CC)C(=O)N(C)CC(=O)N(C)[C@H]2C/C=C\CCN(C2=O)[C@@H](Cc2ccc(C)cc2)C(=O)N(C)CC(=O)N[C@@H](CCc2ccc(C(F)(F)F)c(OC)c2)C(=O)N2C[C@@H](C)C[C@H]2C(=O)NC2(CCC2)C(=O)N(C)[C@@H](C2CCCC2)C(=O)N(C)[C@H](C(=O)N(C)C)CC(=O)N1C` [PP1857], for which the “NRAS/KRAS (KD ratio)” value in experiment [1] is “A (a compound having 10 or more and less than 20 is denoted as A)”. For the same molecule, the “HRAS/KRAS (KD ratio)” value in experiment [2] was “B (a compound having 3 or more and less than 10 is denoted as B)”. The IC50 in experiment [3] stood at 5 nM.

With `CC[C@H](C)[C@@H]1NC(=O)[C@H](CC2CC2)N(C)C(=O)C[C@@H](C(=O)N(C)CC)N(C)C(=O)[C@H](C2CCCC2)N(C)C(=O)C2(CC(C)(C)C2)NC(=O)[C@@H]2C[C@@H](C)CN2C(=O)[C@H](CCc2ccc(C(F)(F)F)c(OC)c2)NC(=O)CN(C)C(=O)[C@H](Cc2ccc(C)cc2)N2CC/C=C\C[C@@H](C2=O)N(C)C(=O)CN(C)C1=O` [PP1902], the “NRAS/KRAS (KD ratio)” value in experiment [1] was “A (a compound having 10 or more and less than 20 is denoted as A)”. Besides, in experiment [2], the “HRAS/KRAS (KD ratio)” value is “A (a compound having 10 or more and less than 20 is denoted as A)”. Moreover, the IC50 in experiment [3] was 12.5 nM.

With `CCC[C@H]1C(=O)N[C@@H]([C@@H](C)CC)C(=O)N(C)CC(=O)N(C)[C@H]2C/C=C\CCN(C2=O)[C@@H](Cc2ccc(C)cc2)C(=O)N(C)CC(=O)N[C@@H](CCc2ccc(C(F)(F)F)c(OC)c2)C(=O)N2C[C@H](C)C[C@H]2C(=O)NC2(CC(C)(C)C2)C(=O)N(C)[C@@H](C2CCCC2)C(=O)N(C)[C@H](C(=O)N(C)C)CC(=O)N1C` [PP1890], in experiment [1], the “NRAS/KRAS (KD ratio)” value is “A (a compound having 10 or more and less than 20 is denoted as A)”. Besides, in experiment [2], the “HRAS/KRAS (KD ratio)” value is “B (a compound having 3 or more and less than 10 is denoted as B)”. The IC50 in experiment [3] was 3.6 nM.

On to `CC[C@H](C)[C@@H]1NC(=O)[C@H](CC2CC2)N(C)C(=O)C[C@@H](C(=O)N(C)C)N(C)C(=O)[C@H](C2CCCC2)N(C)C(=O)C2(CCC2)N(C)C(=O)[C@@H]2C[C@@H](C)CN2C(=O)[C@H](CCc2cc(F)c(C(F)(F)F)c(F)c2)NC(=O)CN(C)C(=O)[C@H](Cc2ccc(C)cc2)N2CC/C=C\C[C@@H](C2=O)N(C)C(=O)[C@@H]2CCCN2C1=O` [PP1801], for which the “NRAS/KRAS (KD ratio)” value in experiment [1] was “A (a compound having 10 or more and less than 20 is denoted as A)”. In experiment [2], the “HRAS/KRAS (KD ratio)” value was “B (a compound having 3 or more and less than 10 is denoted as B)”. The IC50 in experiment [3] worked out at 13 nM.

With `CC[C@H](C)[C@@H]1NC(=O)[C@H](CC(C)C)N(C)C(=O)C[C@@H](C(=O)N(C)C)N(C)C(=O)[C@H](C2CCCC2)N(C)C(=O)C2(CCC2)NC(=O)[C@@H]2C[C@H](C)CN2C(=O)[C@H](CCc2ccc(C(F)(F)F)c(Cl)c2)NC(=O)CN(C)C(=O)[C@H](Cc2ccc(C)cc2)N2CC/C=C\C[C@@H](C2=O)N(C)C(=O)CN(C)C1=O` [PP1852], in experiment [1], the “NRAS/KRAS (KD ratio)” value is “A (a compound having 10 or more and less than 20 is denoted as A)”. The “HRAS/KRAS (KD ratio)” value in experiment [2] is “B (a compound having 3 or more and less than 10 is denoted as B)”. In experiment [3], the IC50 amounted to 6 nM.

Values taken from patent US20240158446A1, “CYCLIC COMPOUND HAVING SELECTIVE INHIBITORY ACTION ON KRAS OVER HRAS AND NRAS” (CHUGAI SEIYAKU KABUSHIKI KAISHA, priority 2021, published 2024).
